Reference: paper PMC8298232 (Archives of Toxicology, 2021)
Several values for one entry are separate records, joined by “and”; a condition that tells them apart may be missing. Equal entries are not always repeated.

Legend:
[1] = Kinetics of UV 328 and its metabolites in blood after single oral exposure of volunteers; assay type: in vivo, human
Protocol: Furthermore, blood samples were drawn from each volunteer 2, 4, 6, 8, 10, 24, […] 48 h after exposure. In summary, […] blood samples were collected from every volunteer. One volunteer donated two EDTA—Monovettes® (Sarstedt, Nümbrecht, Germany) for every time point. So, for every sampling time one sample was kept as whole blood while the plasma fraction was extracted for the other. In this case, the respective blood vessels were centrifuged at 800 × g for 5 min. The supernatants were transferred to 15 mL conical plastic tubes (Sarstedt, Nümbrecht, Germany). Both blood and plasma samples were stored frozen at − 50 °C until analysis.
Analysis of blood samples was performed according to a previously published method (Denghel and Göen [2021]). In summary, blood proteins and cellular components were precipitated by the addition of ACN. Afterwards, the supernatant was diluted with sodium chloride solution and the investigated analytes were extracted by dispersive liquid–liquid microextraction (DLLME) using a mixture of CH2Cl2 and ACN. […] Variation coefficients ranged from 2 to 9% for precision in series and from 3 to 11% for interday precision. Additionally, relative recovery rates between 80 and 100% were found.
The ln-transformed mean excretion curve was plotted against the time (in h) to obtain the slope (kel, elimination rate constant) and the excretion half-life (t1/2) as follows: t1/2=ln2/|kel|.

[2] = Renal elimination kinetics of UV 328 and its metabolites in urine after single oral exposure; conditions: for Tmax / half-life: both, human, urine, po; for half-life: t½ (renal elimination half-life); for REmax (maximum renal excretion rate): human urine with hydrolysis; for REmax (maximum renal excretion rate) / FUE after 24 h (urinary excretion factor as dose equivalents of UV 328) / FUE after 72 h ≙ Fraction of oral dose: mean ± SD; for FUE after 24 h (urinary excretion factor as dose equivalents of UV 328): 0–24 h; for FUE after 72 h ≙ Fraction of oral dose: 0–72 h; for share of cumulative amounts of all quantified analytes in urine: urine with hydrolysis, cumulative within 72 h
Protocol: Three volunteers (two men and one person, mean age 37.3 ± 15.5, mean body weight 81.3 ± 6.1 kg) were selected for the in vivo study. Prior to oral exposure, every volunteer collected one urine sample. Additionally, one blood sample was taken using EDTA-Monovettes® (Sarstedt, Nümbrecht, Germany) before exposure. […] Thereby, a safety factor of 100 was considered for single application and interspecies differences, resulting in a dose of 0.3 mg/kg bw. […] Participants collected the total urine volume of each void separately throughout 72 h and recorded the respective sampling times. […] The urine samples were volumetrically measured for each sampling point, aliquoted in urine Monovettes® (Sarstedt, Nümbrecht, Germany) and stored frozen at − 50 °C until analysis.
The urine samples were processed according to a previously published procedure (Denghel and Göen [2020]). In brief, urine samples were enzymatically hydrolyzed using β-glucuronidase/arylsulfatase from Helix pomatia. […] The extracts were derivatized with BSA/TMCS and TSIM and finally measured via GC–MS/MS with advanced electron ionization (AEI).
Thereby, RE,i is the renal excretion rate for the urine sample i (in µg/h), ci is the analyte concentration in the urine sample (in µg/L), Vi is the volume of the urine sample (in L) and ti and ti-1 are the elapsed time values (in h) of the sample and the previous sample, respectively.
Afterwards, the time course of the excretion rates RE,i was recorded for the middle of the respective sampling period (ti,m in h) according to the equation: ti,m=ti-1+ti-ti-1/2.
The current excretion rates were plotted as a function of the average time of the respective sampling period for every volunteer and each analyte.
Finally, mean excretion curves were calculated by taking the average of related urinary sampling times and the corresponding renal excretion rates (in µg/h) for all volunteers’ samples (arithmetic mean ± standard deviation). The mean cumulative excreted amount (in µmol) of all volunteers was obtained by addition of each molar excreted amount: ∑i=0nci×Vi/M.
Thereby, ci is the concentration of the metabolite in urine (in µg/L), Vi is the volume of the respective urine sample (in L) and M is the molar mass of the respective metabolite (in µg/µmol).
Afterwards, excretion half-lives (t1/2) (in h) were ascertained as described in Sect. “Evaluation of blood kinetics” by plotting the current excretion rates as function of time.

[3] = Shares of conjugated analytes in urine (analysis with and without β-glucuronidase/arylsulfatase hydrolysis); conditions: for Conjugation ratio: with vs without hydrolysis
Protocol: The analysis of urine samples was performed with and without hydrolysis for one volunteer to determine the shares of analytes conjugated with glucuronic acid or sulfate. Initially, urine samples were thawed, equilibrated to room temperature and homogenized using a vortex mixer. Afterwards, the Monovettes® were centrifuged for 2 min at 1600 g to sediment solid residue in the sample. 1 mL of the sample was transferred into a 15 mL conical tube (Sarstedt, Nümbrecht, Germany). Without hydrolysis, 1 mL of the urine samples was prepared with 200 μL of ammonium acetate buffer (1 mol/L, pH 6) and 10 μL of the internal standard mix solution. […] Finally, the calculated analyte excretion rates (see Sect. “Evaluation of renal elimination”) obtained with hydrolysis were correlated with the ones prepared without hydrolysis for every detected compound. A linear curve fit was applied to the plotted data points. The resulting slope of the regression line described the percentage of free and therefore unconjugated analyte.
Therefore, urine samples of one volunteer were analyzed with and without addition of β-glucuronidase/arylsulfatase from Helix pomatia and incubation according to the standard procedure previously published (Denghel and Göen [2020]) (see Sect. “Analysis of urine samples without hydrolysis”).

[4] = Distribution between blood compartments (plasma to blood ratio); assay type: in vivo, human
Protocol: Furthermore, blood samples were drawn from each volunteer 2, 4, 6, 8, 10, 24, 34 and 48 h after exposure. In summary, eight blood samples were collected from every volunteer. […] So, for every sampling time one sample was kept as whole blood while the plasma fraction was extracted for the other. In this case, the respective blood vessels were centrifuged at 800 × g for 5 min. The supernatants were transferred to 15 mL conical plastic tubes (Sarstedt, Nümbrecht, Germany). Both blood and plasma samples were stored frozen at − 50 °C until analysis.
Therefore, the concentrations of the analytes in whole blood and plasma were determined according to the SOP (Denghel and Göen [2021]) and an established procedure (see supplemental material), respectively. The results for whole blood and plasma were plotted against the time points of the respective sampling and the plasma to blood ratios (p/b) were calculated by a simplified approach for estimating the AUC ratios. Therefore, all plasma concentrations (in µg/L) determined were added and divided through the sum of the respective blood concentrations (in µg/L) according to the equation: p/b=∑i=0ncplasma/∑i=0ncblood.
Analysis of plasma samples
For the analysis of plasma samples, the procedure for blood samples was adjusted as follows: Initially, CPD plasma was equilibrated to room temperature and homogenized by manual shaking. Frozen samples of the study participants were thawed, equilibrated to room temperature, and homogenized using a vortex mixer. Aliquots of 1 mL were prepared with 10 µL of the internal standard mix. Afterwards, the plasma proteins were precipitated by the additions of 3 mL ACN with 0.1 % formic acid. The samples were vortex-blended for 1 min and centrifuged for 15 min at 3000 x g. The supernatants were transferred into 25 mL tubes with conical bottom (Sarstedt, Nümbrecht, Germany) and diluted with 4 mL of 1 % sodium chloride solution. Afterwards, a mixture of 800 µL CH 2Cl2 and 800 µL ACN was added to every tube. Again, the samples were vortex - blended for 1 min and centrifuged for 15 min at 3000 x g. The upper organic phases wer e transferred into 3 mL screw vials (Müller + Krempel AG, Bülach, Switzerland) and dried under nitrogen. The residues were derivatized with 90 µL BSA + 5 % TMCS. After 30 min reaction time at room temperature, 10 µL of 10 % TSIM were added. The samples wer e transferred to micro inserts, sealed with crimping caps, and incubated at 40 °C for 90 min. Finally, measurement was performed using GC -MS/MS

[5] = Medical laboratory values (liver, kidney, LDH, CK) of volunteers before, during and one week after oral exposure; assay type: in vivo, human; conditions: third subject, seven days after exposure; not attributed to the exposure by the investigators
Protocol: Because of potential confounding effects on those liver and kidney laboratory parameters and their potential to indicate massive cell destruction, lactate dehydrogenase (LDH) and creatinine kinase (CK) were included in the medical blood work as well. All medical laboratory values were carried out by an accredited medical laboratory. Thus, initial pathological laboratory values for liver or kidney function were defined as further exclusion criteria for study participation. In case of occurrence of relevant pathological medical values for liver or kidney function during the ongoing study which could be attributable to the study exposure, no further subjects were to be included until further clarification, potentially leading to a full cessation of the whole study.

rats = conditions: ref ECHA [2013], Geigy [1970], Til et al. [1968]; cited from earlier work
beagle dogs [6] = conditions: ref US EPA [2009]; cited from earlier work
beagle dogs [7] = conditions: ref ECHA [2013], Geigy [1970], Til et al. [1968]; cited from earlier work
animal studies = conditions: oral exposure, ref CIBA-GEIGY [1978], Kim et al. [2011a]; cited from earlier work
[8] = human whole blood, oral 0.3 mg UV 328/kg body weight, mean ± SD, n = 3
[9] = post-dosage human urine, collected until 72 h
[10] = both sexes, human, in vivo, po, 0.3 mg/kg
[11] = both sexes, human, in vivo, po, 0.3 mg/kg, t1/2 (0–24 h) in blood
[12] = both sexes, human, in vivo, po, 0.3 mg/kg, t1/2 (24–48 h) in blood
[13] = both sexes, human, in vivo, po, tmax in blood
[14] = blood samples 8 h after exposure, without hydrolysis, n = 3
[15] = both sexes, human, whole blood, po, 0.3 mg/kg bw, human whole blood, oral 0.3 mg UV 328/kg body weight, mean ± SD, n = 3
[16] = both sexes, human, whole blood, po, 0.3 mg/kg bw, human whole blood, oral 0.3 mg UV 328/kg body weight, n = 3, read-out: tmax in blood
[17] = both sexes, human, whole blood, po, 0.3 mg/kg, first elimination phase, human blood, oral 0.3 mg/kg bw, n = 3, read-out: t1/2 (0–24 h) in blood (converted)
[18] = both sexes, human, whole blood, po, 0.3 mg/kg, second elimination phase, human blood, oral 0.3 mg/kg bw, n = 3, read-out: t1/2 (24–48 h) in blood (converted)
[19] = 0.3 mg/kg, human urine, monophasic, oral 0.3 mg/kg bw, n = 3
[20] = sum of plasma concentrations / sum of blood concentrations, one volunteer (n = 1)

CCC(C)(C)c1cc(-n2nc3ccccc3n2)c(O)c(C(C)(C)C(C)=O)c1 [UV 328-6/3-CO, 2-(2H-benzotriazol-2-yl)-6-(2-methylbutan-3-on-2-yl)-4-(tert-pentyl)phenol]
plateau concentration in blood ([1]; human blood, plateau until 48 h after exposure): ~0.1 µg/L
cmax in blood [1, 8]: < LOQ
detection in urine samples after exposure [2, 9]: not detected

CCC(C)(C)c1cc(-n2nc3ccc(O)cc3n2)c(O)c(C(C)(C)CC)c1 [UV 328-BTOH, 2-(2H-5-hydroxybenzotriazol-2-yl)-4,6-(di-tert-pentyl)phenol]
detection in blood samples after exposure ([1]; human, in vivo, po, 0.3 mg/kg): not detected
detection in urine samples after exposure ([2]; in vivo): not detected

CCC(C)(C)c1cc(C(C)(C)C(C)=O)cc(-n2nc3ccccc3n2)c1O [UV 328-4/3-CO, 2-(2H-benzotriazol-2-yl)-4-(2-methylbutan-3-on-2-yl)-6-(tert-pentyl)phenol]
Conjugation ratio ([3]; urine of one volunteer): 100%
concentration at 24 h [1, 10]: 0.9 ± 0.3 ng/mL
half-life [1, 11]: 8.3 h
half-life [1, 12]: 16.4 h
Tmax [1, 13]: 8 h
p/b ratio (plasma to blood ratio) ([4]; human, in vivo): 3.2

CC(=O)C(C)(C)c1cc(-n2nc3ccccc3n2)c(O)c(C(C)(C)C(C)O)c1 (centres unmarked) [UV 328-4/3-CO-6/3-OH, 2-(2H-benzotriazol-2-yl)-4-(2-methylbutan-3-on-2-yl)-6-(3-hydroxy-2-methylbutan-2-yl)phenol]
Conjugation ratio ([3]; urine of one volunteer): 100%
share among the quantified metabolites in blood [1, 14]: 13.7 ± 2.5%
half-life ([1]; both sexes, human, whole blood, oral, 0.3 mg/kg bw, human blood, plateau-shaped elimination curve, phase not specified, read-out: elimination half-life in blood): > 600 h
Cmax [1, 15]: 4.95 ± 0.72 ng/mL
Tmax [1, 16]: 24 to 34 h
half-life [1, 17]: < 600 h
half-life [1, 18]: < 600 h
time at which the plateau of blood levels was reached ([1]; human blood, post-dosage): around 10 h
Tmax ([2]; 0.3 mg/kg): 11.3 h
half-life [2, 19]: 53.5 h
REmax (maximum renal excretion rate) ([2]; oral 0.3 mg/kg bw, n = 3): 0.65 ± 0.02 µg/h
FUE after 24 h (urinary excretion factor as dose equivalents of UV 328) ([2]; human urine, n = 3): 0.038 ± 0.010%
FUE after 72 h ≙ Fraction of oral dose ([2]; human urine, n = 3): 0.081% and 0.081 ± 0.018%
t½ (renal elimination half-life) ([2]; human urine, monophasic, oral 0.3 mg/kg bw, n = 3, 0.3 mg/kg): 53.3 h
detection in urine samples after exposure [2, 9]: still detectable in urine after the observed period of 72 h
share of cumulative amounts of all quantified analytes in urine ([2]; n = 3): 65.8 ± 10.9%
p/b ratio (plasma to blood ratio) [4, 20]: 2.0

CCC(C)(C)c1cc(-n2nc3ccccc3n2)c(O)c(C(C)(C)C(C)O)c1 (centres unmarked) [UV 328-6/3-OH, 2-(2H-benzotriazol-2-yl)-6-(3-hydroxy-2-methylbutan-2-yl)-4-(tert-pentyl)phenol]
share excreted via urine without conjugation to glucuronic acid or sulfate ([3]; human, in vivo): about 3%
Conjugation ratio ([3]; urine of one volunteer): 97%
concentration at 24 h [1, 10]: 5.2 ± 0.6 ng/mL
half-life [1, 11]: 9 h
half-life [1, 12]: 17.9 h
Tmax [1, 13]: 8 h
tmax in blood ([1]; both, human, in vivo, po): 10 h
p/b ratio (plasma to blood ratio) ([4]; human, in vivo): 2.3

CCC(C)(C)c1cc(C(C)(C)C(C)O)cc(-n2nc3ccccc3n2)c1O (centres unmarked) [UV 328-4/3-OH, 2-(2H-benzotriazol-2-yl)-4-(3-hydroxy-2-methylbutan-2-yl)-6-(tert-pentyl)phenol]
Conjugation ratio ([3]; urine of one volunteer): 100%
share among the quantified metabolites in blood [1, 14]: 19.5 ± 4.9%
Cmax [1, 15]: 7.4 ± 0.9 ng/mL
Tmax [1, 16]: 10 h
half-life [1, 17]: 5.9 h
half-life [1, 18]: 15.7 h
concentration at 24 h ([1]; both sexes, whole blood, human blood, 24 h after oral 0.3 mg/kg bw, mean ± SD, n = 3, read-out: mean blood level 24 h after exposure): 1.5 ± 0.5 ng/mL
tmax in blood ([1]; human whole blood, oral 0.3 mg UV 328/kg body weight, n = 3): 8 h
Tmax ([2]; 0.3 mg/kg): 9.3 h
half-life [2, 19]: 46.4 h
REmax (maximum renal excretion rate) ([2]; oral 0.3 mg/kg bw, n = 3): 0.10 ± 0.04 µg/h
FUE after 24 h (urinary excretion factor as dose equivalents of UV 328) ([2]; human urine, n = 3): 0.004 ± 0.001%
FUE after 72 h ≙ Fraction of oral dose ([2]; human urine, n = 3): 0.007 ± 0.003%
share of cumulative amounts of all quantified analytes in urine ([2]; n = 3): 6.1 ± 2.3%
p/b ratio (plasma to blood ratio) [4, 20]: 2.1

CCC(C)(C)c1cc(-n2nc3ccccc3n2)c(O)c(C(C)(C)CC)c1 [UV 328, 2-(2H-Benzotriazol-2-yl)-4,6-di-tert-pentylphenol]
share excreted via urine without conjugation to glucuronic acid or sulfate ([3]; urine of one volunteer): about 84%
slope of the linear regression line (excretion rates without vs with hydrolysis) ([3]; urine of one volunteer, slope = fraction of free analyte): 0.84
share of all detected parameters in blood [1, 14]: 95.2 ± 2.0%
concentration at 24 h [1, 10]: 83.1 ± 54.2 ng/mL
concentration at 48 h [1, 10]: 29.1 ± 19.4 ng/mL
half-life [1, 11]: 5.3 h
half-life [1, 12]: 16.3 h
Cmax [1, 15]: 736 ± 489 ng/mL
Tmax [1, 16]: 8 h
cmax in blood [1, 8]: 736.2 ± 488.7 µg/L
REmax (maximum renal excretion rate) ([2]; oral 0.3 mg/kg bw, n = 3): 0.013 ± 0.003 µg/h
share of cumulative amounts of all quantified analytes in urine ([2]; n = 3): 1.0 ± 0.1%
CK value (creatinine kinase) [5]: 6784 U/L
toxicity after repeated oral administration (rats): specific target organ toxicity to liver and kidneys
No Observed Adverse Effect Level (NOAEL) (beagle dogs [6]): 30 mg UV 328/kg bw/day
toxicity after repeated oral administration (beagle dogs [7]): specific target organ toxicity to liver and kidneys
acute toxicity (animal studies): No acute toxicity was observed
